Source: patent US20100099640A1, “TISSUE DEGENERATION PROTECTION” (priority 2007, published 2010)

Columns and labels:
[1] = Body weight of DKO mice during the 12-week treatment period; assay type: in vivo, mouse; settings: stevioside 10 mg/kg orally for 12 weeks (12 to 24 weeks of age); placebo 43%
Protocol: (§1) Homozygous LDL-receptor-knockout mice (LDLR^(−/−)), heterozygous ob/+, and C57BL6 mice were purchased from Jackson Laboratory, Bar Harbor, Me. LDLR^(−/−) mice were backcrossed into a C57BL6 background to the 10th generation. To obtain DKO mice with combined leptin deficiency (ob/ob) and LDL-receptor deficiency, LDLR^(−/−) and ob/+ mice were crossed. All offspring were genotyped by polymerase chain reaction (PCR) techniques. All mice were housed at 22° C. on a fixed 12/12-hour light/dark cycle. Experimental procedures in animals were performed in accordance with protocols approved by the Institutional Animal Care and Research Advisory Committee. All mice were fed standard chow containing 4% fat (Pavan Service). Food intake was ≈5.7 g/d. Mice (about 50 g) were treated with stevioside (N=14; 10 mg/kg), steviol (N=9; 5 mg/kg) or placebo (N=17) for 12 weeks between 12 and 24 weeks of age. Stevioside (Molecular weight: 804) was dissolved in water (1 mg/ml) and 500 μl of the solution was administered orally. Steviol (Molecular weight: 318) was dissolved in water containing 6% NaHCO3 (1 mg/ml) and 250 μl of the solution was administered orally.

[2] = tested on: diabetic rats; settings: blood of diabetic rats; cited from earlier work
[3] = tested on: healthy subjects; experiment: Stevioside 250 mg capsules thrice daily in healthy subjects; assay type: in vivo, human; settings: 10 healthy subjects
Excerpt: The present invention relates to the diterpenoic tetrahydropyran, steviol-19-glucuronide (a natural metabolite of stevioside) and other diterpenoic tetrahydropyran derivatives. […] However, oral administration of stevioside results in the surprising finding that it increases the expression and activity of PPARs, and that it exerts system biological effects to normalise lipid metabolism and to inhibit the formation atherosclerotic cardiovascular disease.

[4] = tested on: mice with combined leptin and LDL-receptor deficiency (double knockout [DKO] mice); experiment: Blood analyses (glucose, insulin, lipids, HOMA, adiponectin) in obese, dyslipidemic and diabetic DKO mice; assay type: in vivo, mouse
Excerpt: We measured the effect of stevioside on weight, blood variables (e.g. glucose, insulin, lipids), PPAR expression in adipose tissues, and on atherosclerosis in mice with combined leptin and LDL-receptor deficiency (double knockout [DKO] mice).
as §1
Blood of conscious mice was collected by tail bleeding into EDTA tubes after an overnight fast. Plasma was obtained by centrifugation. Plasma cholesterol and triglycerides were measured by means of standard enzymatic colorimetric assays (Boehringer Mannheim), plasma fatty acids (FFA) by means of the FFA-Half Microtest kit (Roche Applied Science), glucose by means of a glucometer (Menarini Diagnostics), plasma insulin and adiponectin by means ELISAs (Mercodia and R&D, respectively). Insulin resistance was calculated by a homeostasis model assessment (HOMA)=fasting serum insulin (mU/L) times fasting blood glucose (mmol/L)/22.5.

[5] = tested on: Chinese hypertensive men and women; settings: cited from earlier work
[6] = tested on: RNA expression in aortic arch; experiment: Real-time RT-PCR of RNA expression in aortic arch of treated DKO mice; assay type: in vivo, mouse
Protocol: as §1
The level of RNA expression in extracts of white visceral (intra-abdominal) adipose tissue and aortic arch was measured by real-time reverse transcription (RT)-PCR. Total RNA was extracted with the Trizol reagent (InVitrogen) and purified on an RNeasy kit column (Qiagen). First-strand cDNA was generated from total RNA by RT using random primers from Takara and Superscript III reverse transcriptase (InVitrogen). Quantitative real-time PCR was performed using SybrGreen master mix according to the supplier protocols (Applied Biosystems).). Oligonucleotides (InVitrogen) used as forward primer (F) and reverse primer (R) were: for mouse PPARalpha: F: 5′-[…]-3′; R: 5′-[…]-3′; for mouse PPARgamma: F: 5′-[…]-3′; R: 5′-GTCAGCGGGTGGGACTTTC-3′; for mouse FABP4: F: 5′-AACTGGGCGTGGAATTCG-3′; R: 5′-[…]-3′; for mouse iNOS: F: 5′-[…]-3′; R: 5′-[…]-3′; for mouse GLUT-4: F: 5′-[…]-3′; R: 5′-[…]-3′; for mouse IRS-1: F: 5′-[…]-3′; R: 5′-CGCCTCGGGAAGAGACAGT-3′; for mouse IRS-2: F: 5′-[…]-3′: R: 5′-[…]-3′; for mouse LXRalpha: F: 5′-[…]-3′; R: 5′-[…]-3′; for mouse SOD1: F: 5′-[…]-3′; R: 5′-[…]-3′; for mouse SOD2: F: 5′-TCGGTGGCGTTGAGATTGT; R: 5′-[…]-3′; for mouse SOD3: F: 5′-[…]-3′; R: 5′-GCTGCCGGAAGAGAACCAA-3′; and for mouse β-actin (housekeeping gene), F: 5′-[…]-3′; R: 5′-[…]-3′. The level of mRNA expression was calculated using the threshold cycle (Ct) value, i.e., the number of PCR cycles at which the fluorescent signal during the PCR reaches a fixed threshold. For each sample, the Ct both for the gene of interest and for the housekeeping gene β-actin were determined to calculate ΔCt,sample (Ct,target gene−Ct,housekeeping gene), thus normalizing the data and correcting for differences in amount and/or quality between the different RNA samples. The expression levels were related to an external calibrator consisting of intra-abdominal adipose tissue from C57BL6 control mice. Subsequently, ΔΔCt (ΔCt,sample−ΔCt,calibrator) was determined, and the relative expression levels were calculated from 2^−ΔΔCt according to the manufacturer's instructions (Applied Biosystems). RNA expression levels are thus indicated as arbitrary units ±SD

[7] = tested on: mouse pancreatic islets, β-cell line INS-1; settings: direct action on β-cells; cited from earlier work
[8] = tested on: anaesthetised dogs; settings: 200 mg stevioside powder/kg peroral; cited from earlier work
[9] = time points 3 days after administration
[10] = stevioside 10 mg/kg or steviol 5 mg/kg orally, 12 weeks, compared with placebo mice
[11] = stevioside 10 mg/kg orally, 12 weeks, compared to baseline levels
[12] = aortic arch, stevioside 10 mg/kg orally, 12 weeks

C=C1C[C@@]23CC[C@H]4C(C)(CCC[C@@]4(C)C(=O)O[C@@H]4O[C@H](CO)C(O)[C@H](O)C4O)[C@@H]2CCC1(OC1O[C@H](CO)C(O)C(O)C1OC1O[C@H](CO)C(O)[C@H](O)C1O)C3 (stereo in doubt) [stevioside, Kaur-16-en-18-oic acid, 13-[(2-O-b-D-glucopyranosyl-b-D-glucopyranosyl)oxy]-, b-D-glucopyranosyl ester, (4a)-]
increase of weight during the treatment period [1]: 41%
HDL-cholesterol [2]: increases
serum concentration of LDL cholesterol [2]: lowers
serum concentration of triglycerides [2]: lowers
24-hour urinary volume [3]: not significantly different
mean blood glucose, control vs stevioside condition [3]: no significant difference
mean insulin, control vs stevioside condition [3]: no significant difference
urinary excretion of electrolytes [3]: not significantly different
blood biochemical parameters, control vs stevioside condition [3, 9]: does not provide significant differences
blood pressure, control vs stevioside condition [3, 9]: does not provide significant differences
plasma concentration of adiponectin ([4]; after 12 weeks of treatment, before treatment 4729±1652, P=0.003): 6517 ± 1472 ng/mL
FFA level [4, 10]: significantly lower
HOMA values (insulin resistance) [4, 10]: significantly lower
cholesterol level [4, 10]: significantly lower
glucose level [4, 10]: significantly lower
insulin level [4, 10]: significantly lower
triglyceride level [4, 10]: significantly lower
FFA [4, 11]: reduced
cholesterol [4, 11]: reduced
glucose [4, 11]: reduced
insulin [4, 11]: reduced
triglycerides [4, 11]: reduced
insulin sensitivity ([4]; stevioside 10 mg/kg orally, 12 weeks, result of the decrease in glucose and insulin): increase
lowering of systolic and diastolic blood pressure ([5]; 750 mg or 1500 mg of stevioside a day for one or two years): about 7%
fasting glucose concentrations ([5]; long-term administration, volunteers with normal glucose levels): did not reveal effects
eNOS ([6]; aorta of stevioside-treated mice): not affected
expression of IRS2 [6, 12]: increased expression
expression of PPARalpha [6, 12]: did not increase
expression of SOD1 [6, 12]: increased expression
expression of SOD2 [6, 12]: increased expression
expression of the inflammatory iNOS [6, 12]: decreased the expression
insulin secretion [7]: stimulation of insulin secretion
blood pressure [8]: short-term blood pressure reduction
